Assay results from patent US6949682B2, “Cinnamaldehyde derivatives inhibiting growth of tumor cell and regulating cell cycle, preparations and pharmaceutical compositions thereof” (Korea Research Institute of Bioscience and Biotechnology, priority 2003, dated 2005).

Legend:
SW620 colon cancer cell [1] = assay: Cell cycle analysis (Experimental Example 1), SW620; type: cell-based, human; settings: SW620, 1 μM, 48 hours, percentage of cells in G2/M
Description: (§1) Colon cancer cell of human SW620(ATCC) or HCT116 (ATCC) was transferred to T25 flask(culture 7.5 ml) by RPMI1640 (Gibco/BR) medium or DMEM medium (Gibco/BR) containing 10% FBS (fetal bovine serum), respectively. Thereafter the cell was incubated for 12 hours at 37° C. in incubator. After the cell was incubated for 12 hours, 7.5 μl of DMSO was added to a culture used as control group, for the final concentration to be 0.1%. In order to use in experiment, samples of various concentrations were prepared by dissolving the cinnamaldehyde derivatives of the present invention in DMSO. 7.5 μl of the prepared samples was added to a culture used as experimental group. Cell of control or experimental group was incubated for 48 hours.
(§2) For cell cycle analysis, incubated cell was removed from medium. Thereafter the incubated cell was separated from the flask by trypsin. Thus the cell was centrifuged at 300 g for 5 min. The cell was washed with phosphate buffer solution (PBS) to remove the residue medium from the cell. 3 ml of ethanol (70%) was added to the cell. The cell was fixed by being positioned at −20° C. for 12 hours. The fixed cell was centrifuged at 300 g for 3 min and washed with the cold PBS for two times to remove residual ethanol. The cell solution prepared by adding 500 μl of PBS to the cell was well mixed to produce the homogeneous state. 100 μg/ml RNase A 50 μl was added to the cell solution, thereafter the resulting cell solution was positioned at 37° C. for 30 min. The chromosomal DNA was stained by further adding 1 mg/ml propidium iodide (soluble in PBS) thereto.
(§3) Distribution of cell cycle of 20,000 stained cells were measured by using Becton-Dickinson FACS caliber (San Jose, Calif., USA).

HCT116 colon cancer cell [2] = assay: Cell cycle analysis (Experimental Example 1), HCT116; type: cell-based, human; settings: HCT116, 1 μM, 48 hours, percentage of cells in G2/M
Description: as §1, §2, §3

HCT116 colon cancer cell [3] = assay: Growth inhibition of HCT116 colon cancer cell (GI50); type: cell-based, human; settings: concentration at which growth of HCT116 colon cancer cell was inhibited to the 50%
Description: as §1
(§4) HCT116 GI50 (μM) and SW620 GI50 (μM) mean to be the concentrations at which growth of HCT116 and SW620 colon cancer cell was inhibited to the 50%, respectively.

SW620 colon cancer cell [4] = assay: Growth inhibition of SW620 colon cancer cell (GI50); type: cell-based, human; settings: concentration at which growth of SW620 colon cancer cell was inhibited to the 50%
Description: as §1, §4

Row | SMILES | melting point [°C] | GI50 (HCT116 colon cancer cell [3]; Homo sapiens, HCT-116) [µM] | GI50 (SW620 colon cancer cell [4]; Homo sapiens, SW-620) [µM] | GI50 (HCT116 colon cancer cell [3]) [µM] | GI50 (SW620 colon cancer cell [4]) [µM] | G2/M at 1 μM(%) SW620 (SW620 colon cancer cell [1]) [%] | G2/M at 1 μM(%) HCT116 (HCT116 colon cancer cell [2]) [%]
1 | O=CC(=C\c1ccccc1)/C(C=O)=C/c1ccccc1 [Compound 1, 2,3-bis-benzylidenesuccinaldehyde] | 150 to 151 | 8.39 | 1.52 |  |  | 45 | 42
2 | COc1cc(C=C(C=O)C(C=O)=Cc2ccc(O)c(OC)c2)ccc1O [Compound 7, 2,3-bis-(4-hydroxy-3-methoxy-benzylidene)succinaldehyde] | 177 to 178 | 7.87 | 3.53 |  |  | 38 | 30
3 | COc1ccc(C=C(C=O)C(C=O)=Cc2ccc(OC)c(OC)c2)cc1OC [Compound 8, 2,3-bis-(3,4-dimethoxybenzylidene)succinaldehyde] | 149 to 150 | 5.49 | 10.5 |  |  | 75 | 71
4 | COc1ccc(C=C(C=O)C(C=O)=Cc2ccc(OC)cc2)cc1 [Compound 12, 2,3-bis-(4-methoxy-benzylidene)succinaldehyde] | 204 to 207 | 9.62 | 10.2 |  |  | 57 | 59
5 | CCCOc1ccccc1/C=C(C=O)/C(C=O)=C/c1ccccc1OCCC [Compound 13, 2,3-bis(2-propyloxy-benzylidene)succinaldehyde] | 109 to 110 | 5.28 | 2.11 |  |  | 62 | 65
6 | C=CCOc1ccccc1C=C(C=O)C(C=O)=Cc1ccccc1OCC=C [Compound 14, 2,3-bis-(2-allyloxy-benzylidene)succinaldehyde] | 117 to 118 | 5.28 | 2.64 |  |  | 76 | 72
7 | CC(C)Oc1ccccc1C=C(C=O)C(C=O)=Cc1ccccc1OC(C)C [Compound 15, 2,3-bis-(2-isopropyloxy-benzylidene)succinaldehyde] | 109 to 110 | 5.34 | 5.34 |  |  | 69 | 70
8 | O=CC(=Cc1ccccc1OCc1ccc([N+](=O)[O-])cc1)C(C=O)=Cc1ccccc1OCc1ccc([N+](=O)[O-])cc1 [Compound 19, 2,3-bis-(2-(4-nitrobenzyloxy)-benzylidene)succinaldehyde] | 116 to 117 | 5.19 | 7.09 |  |  | 39 | 32
9 | O=CC(=Cc1cccc(OCc2ccccc2)c1)C(C=O)=Cc1cccc(OCc2ccccc2)c1 [Compound 22, 2,3-bis-(3-benzyloxy-benzylidene)succinaldehyde] | 126 to 127 | 7.59 | 3.58 |  |  | 65 | 68
10 | CCCCC(=O)Oc1ccc(C=C(C=O)C(C=O)=Cc2ccc(OC(=O)CCCC)c(OC)c2)cc1OC [Compound 26, 2,3-bis-(4-valeryloxy-3-methoxy-benzylidene)succinaldehyde] |  | 11.2 | 54 |  |  | 47 | 46
11 | CCCOc1ccc(/C=C(C=O)/C(C=O)=C/c2ccc(OCCC)cc2)cc1 [Compound 28, 2,3-bis-(4-propyloxybenzylidene)succinaldehyde] |  | 0.82 | 0.55 |  |  | 70 | 72
12 | CCCCC(=O)Oc1ccc(C=C(C=O)C(C=O)=Cc2ccc(OC(=O)CCCC)cc2)cc1 [Compound 30, 2,3-bis-(4-valeryoxy-benzylidene)succinaldehyde] |  |  |  | 21 | 65 | 65 | 63

Continued by falling GI50 (HCT116 colon cancer cell [3]; Homo sapiens, HCT-116), values first:

Row | melting point [°C] | GI50 (HCT116 colon cancer cell [3]; Homo sapiens, HCT-116) [µM] | GI50 (SW620 colon cancer cell [4]; Homo sapiens, SW-620) [µM] | GI50 (HCT116 colon cancer cell [3]) [µM] | GI50 (SW620 colon cancer cell [4]) [µM] | SMILES | G2/M at 1 μM(%) SW620 (SW620 colon cancer cell [1]) [%] | G2/M at 1 μM(%) HCT116 (HCT116 colon cancer cell [2]) [%]
13 | 116 to 117 | 4.23 | 0.61 |  |  | CC(C)Oc1cccc(C=C(C=O)C(C=O)=Cc2cccc(OC(C)C)c2)c1 [Compound 21, 2,3-bis-(3-isopropyloxy-benzylidene)succinaldehyde] | 74 | 75
14 | 141 to 142 | 4.02 | 10.7 |  |  | O=CC(=Cc1ccccc1F)C(C=O)=Cc1ccccc1F [Compound 2, 2,3-bis-(2-fluorobenzylidene)succinaldehyde] | 58 | 48
15 | 163 to 164 | 3.72 | 1.55 |  |  | COc1ccccc1C=C(C=O)C(C=O)=Cc1ccccc1OC [Compound 5, 2,3-bis-(2-methoxybenzylidene)succinaldehyde] | 50 | 55
16 | 107 to 108 | 3.62 | 90.6 |  |  | O=CC(=Cc1cccc(Cl)c1)C(C=O)=Cc1cccc(Cl)c1 [Compound 6, 2,3-bis-(3-chlorobenzylidene)succinaldehyde] | 66 | 60
17 | 172 to 173 | 3.62 | 24.2 |  |  | O=CC(=Cc1ccc(Cl)cc1)C(C=O)=Cc1ccc(Cl)cc1 [Compound 9, 2,3-bis-(4-chlorobenzylidene)succinaldehyde] | 67 | 63
18 | 93 to 94 | 2.74 | 6.74 |  |  | CCCOc1cccc(/C=C(C=O)/C(C=O)=C/c2cccc(OCCC)c2)c1 [Compound 20, 2,3-bis-(3-propyloxy-benzylidene)succinaldehyde] | 76 | 72
19 | 210 to 211 | 2.63 | 4.64 |  |  | O=CC(=Cc1ccccc1OCc1ccc(Br)cc1)C(C=O)=Cc1ccccc1OCc1ccc(Br)cc1 [Compound 18, 2,3-bis-(2-(4-bromobenzyloxy)-benzylidene)succinaldehyde] | 70 | 75
20 | 244 to 246 | 1.36 | 1.02 |  |  | O=CC(=Cc1ccc(O)cc1)C(C=O)=Cc1ccc(O)cc1 [Compound 10, 2,3-bis-(4-hydroxy-benzylidene)succinaldehyde] | 65 | 61
21 | 194 to 195 | 1.05 | 2.14 |  |  | O=CC(=Cc1ccccc1Br)C(C=O)=Cc1ccccc1Br [Compound 4, 2,3-bis-(2-bromobenzylidene)succinaldehyde] | 36 | 38
22 | 177 to 178 | 1.03 | 5.17 |  |  | Cc1ccc(C=C(C=O)C(C=O)=Cc2ccc(C)cc2)cc1 [Compound 11, 2,3-bis-(4-methyl-benzylidene)succinaldehyde] | 44 | 40
23 | 177 to 178 | 0.91 | 0.91 |  |  | O=CC(=Cc1ccccc1Cl)C(C=O)=Cc1ccccc1Cl [Compound 3, 2,3-bis-(2-chlorobenzylidene)succinaldehyde] | 47 | 40
24 | 186 to 187 | 0.84 | 0.54 |  |  | O=CC(=Cc1ccccc1OCc1ccc(Cl)cc1)C(C=O)=Cc1ccccc1OCc1ccc(Cl)cc1 [Compound 17, 2,3-bis-(2-(4-chlorobenzyloxy)-benzylidene)succinaldehyde] | 76 | 71
25 | 119 to 120 | 0.71 | 0.91 |  |  | COc1cc(C=C(C=O)C(C=O)=Cc2ccc(OC(C)C)c(OC)c2)ccc1OC(C)C [Compound 24, 2,3-bis-(4-isopropyloxy-3-methoxy-benzylidene)succinaldehyde] | 55 | 48
26 | 95 to 96 | 0.62 | 2.28 |  |  | CCCOc1ccc(C=C(C=O)C(C=O)=Cc2ccc(OCCC)c(OC)c2)cc1OC [Compound 23, 2,3-bis-(4-propyloxy-3-methoxybenzylidene)succinaldehyde] | 56 | 50
